Results taken from US20230135366A1, “LIPOIC ACID CHOLINE ESTER COMPOSITIONS AND METHODS TO STABILIZE INTO […] RELEVANT DRUG PRODUCTS” (NOVARTIS AG, priority 2016, published 2023).
Where two headings read alike, the source gives them in different places. Blank lines part the entries; values can stand above or below the compound they belong to.

Tests used:
[1] = HPLC related compounds / related substances (oxidized LACE, lipoic acid, total impurities) of LACE solutions, mixing and stability studies; assay type: physicochemical
Experimental: Each of the solutions was also measured for degradants of lipoic acid choline ester. As mentioned earlier, the degradation mechanism of LACE is oxidative and hydrolytic, resulting in oxidized and hydrolyzed species.
• a) HPLC Method Setup: The HPLC assay consisted of a 50 minute mobile phase gradient made up of (A) 0.05M sodium phosphate monobasic, 0.005M 1-heptane sulfonic acid sodium salt, 0.2% v/v triethylamiue, adjusted to pH 4.5 with phosphoric acid; and (B) acetonitrile. The analytical column used is a YMC Pack ODS AO (4.6×250 mm, 5 μm, 120 Å), P/N AQ125052546WT; the analytical detection wavelength is 225 nm.
The eve dropper bottles with the two formulations were stored at 25° C. in a temperature-controlled incubator, and 0.5 mL (about 10 drops) sampled at each time point for analysis of related substances (by HPLC). The nitrogen blanket was not replenished, so some air got into the bottle with each sampling. This experiment was an early investigation of stability at room temperature (25±0.1° C.) with no protection from oxygen with continued sampling.
For the stability studies on both the clinical LACE-Chloride and the prototype LACE-Iodide formulation with a 1:1 molar ratio of HP-B-CD to LACE, the formulations were filtered, filled into LDPE eye dropper bottles, blanketed with nitrogen, and then placed inside barrier foil pouches with an oxygen scavenger. It is likely that some oxygen was still present in the pouch to start. After the first time point following T=0, however, the rise in oxidized LACE species stops, even at elevated temperatures, likely due to depletion of the remaining oxygen (FIG. 20).

[2] = Appearance of ophthalmic solution in stability studies; assay type: physicochemical; settings: API (Lot# 011510)
Experimental: in an effort to stabilize the drug formulation further, systematic stability studies (5° C., 25° C. and 40° C.) on mid-scale R&D batches were undertaken with bottled EV06 Ophthalmic Solution in the presence and absence of oxygen scavenging packets contained in zip-lock, vapor impermeable foil pouches.

[3] = Osmolality of formulation; assay type: physicochemical
Experimental: • The requisite osmolality range for drug-containing formulations and placebo is 280-320 mOsm/kg. Preferably, all LACE formulations need to he within 290-310 mOsm/Kg. • Since LACE has contributions to osmolality, each formulation will have varying concentrations of glycerol to achieve the requisite osmolality.
The target for Total Osmolality was 300 mOsm/kg.
Accordingly, a full series of solutions was prepared with slightly altered target osmolalities for the solutions without LACE, and therefore different target glycerol contents. All solutions were prepared using the same Alanine/Benzalkonium Chloride, pH 4.5 stock solution used in the placebos, so that the final composition was consistently: • 0.5% (5 mg/g) Alanine • 0.005% (0.05 mg/g) Benzalkonium Chloride • Small amounts of 1N Sodium Hydroxide, 1N Hydrochloric Acid, to adjust pH to 4.5 • Water for Inhalation (added to final weight of 5.0 g per formulation)

ocular surface = experiment: Ocular irritation in rabbit irritation model (rabbit Draize model); assay type: in vivo
Text: Another issue that confounded the pharmaceutical development of LACE ophthalmic solutions was incidences of ocular surface irritation observed in-vivo in a rabbit irritation model. The invention details unexpected parameters that contributed to, or caused ocular irritation and processes to eliminate or minimize these parameters. These parameters were not related to the formulation composition or properties of the drug substance, factors that normally correlated or attributed to ocular irritation.
FIGS. 12A and 12B generally provide a snapshot of the correlation of irritation to the micellar LACE species over a number of batches compounded.
Example 16 established the correlation between concentration of associative species and ocular irritation in an in-vivo model (rabbit Draize model).

[4] = General properties of LACE (solubility, solution pH, Log P, hygroscopicity); assay type: physicochemical; settings: for solubility: read-out: Solubility Profile
[5] = RP-HPLC (UV / ELSD) measurement of LACE micellar / associative (aggregated) species; assay type: physicochemical; settings: for equilibrium concentration of aggregates (% of the API peak): aqueous solution
Text: While searching for causes for irritation, it was discovered that LACE, when dissolved in water, forms micelles and micellar aggregates, common to compounds that are amphiphilic in nature. As definition, examples of micelle-forming compounds are phosphatidyl choline, pegylated phosphatidyl choline, PEG-stearate, […], etc. While the micelle-formation phenomenon of LACE is not unexpected due to the amphiphilic nature of the molecule, the formation of these aggregates at lower temperatures were surprising. The presence of the aggregates was measured by a RP-HPLC method developed in-house. The measurement could be performed both with HPLC-UV and HPLC-ELSD. […] The equilibrium concentration of LACE Iodide aggregates are 39-41% of the API peak. In comparison, the equilibrium concentration of LACE chloride is <1%, after dispersion with agitated stirring.
• Two 200-g batches of 1.5% LACE Chloride were prepared at 25° C. after vehicle was deoxygenated with bubbled nitrogen. […] At time-points of 1 h, 3 h, 4 h, 6 h, 8 h, 9 h, and 24 h, about 5-15 mL was removed by syringe and sterile-filtered into eye-dropper bottles (5 mL/bottle), without nitrogen overlay in the bottle (apparatus was in use for the bulk batches). • Samples of all time-points were diluted to 10 mg/g, and then injected for RP-HPLC analysis with ELK.) detection within 30 minutes of removal from the bulk solution. • After the 24-hour time-point, bulk solutions were sterile-filtered, and each divided into two ˜50 mL portions—one held at 5° C., the other 50-mL portion held at 25° C. All portions were overlaid with nitrogen blown into the vessel. • At the end of the additional 24-hour hold time, each portion was filled into eye-dropper bottles with a nitrogen overlay in the bottle.
The final diluted LACE concentration was targeted to the level appropriate for RP-HPLC analysis (12.8 mg/mL of LACE-Iodide).
The approach was to generate complete inclusion complexes of LACE-Iodide in HP-B-CD, thus preventing any opportunity of aggregation of LACE molecules. Several batches of formulation were prepared using varying molar ratios of LACE-Iodide to HP-B-CD and the growth of aggregative species assessed over time. The formulations were stored at 5° C. The formation of associative species as measured by reverse phase HPLC was then reported as the area percent relative to the main LACE peak area.

bovine calf cornea [6] = experiment: Corneal permeability, Franz Cell Diffusion apparatus; settings: Study 1
Experimental: (§1) LACE is delivered from these formulations as one of two salts: LACE-chloride and LACE-iodide. […] Therefore, both LACE and lipoic acid concentrations were assayed at each time point to evaluate permeability.
(§2) • a. 6 bovine eyeballs are dissected in a sterile laminar flow hood. • b. The corneas are extracted from the eyeball, briefly rinsed in sterile double-distilled water, and submerged in 3 mL of glutathione buffer (0.1% glutathione, oxidized, 6 mM sodium phosphate, pH 7, sterile-filtered) in a sterile culture dish. • c. The corneas are kept at 5° C. and used within 24 hours of excision. • d. Six 5 mL Franz vertical diffusion cells are cleaned with distilled water and isopropanol and air dried in a laminar flow cabinet prior to set up. • e. A small stir bar is placed within the receptor fluid chamber. The bottle of receptor fluid (5 mM phosphate-buffered saline with 0.1% Tween 20, pH 7.4, sterile-filtered) is tared on an analytical balance, and 4.5 mL of it is added to each Franz cell. The exact weight of the starting receptor fluid is recorded. • f. The cornea is gently rinsed of glutathione buffer with receptor fluid, and is placed on the donor pedestal. The donor chamber is placed on top of the cornea, and the entire assembly is fastened to the pedestal with a metal clip. At this point, 0.5 mL of additional receptor fluid is added via the sampling arm, until the fluid level reaches the point marked on the arm with a black line. The weight of this addition is also recorded. • g. The Franz diffusion apparatus is connected to a heater unit, and the temperature is raised to 37° C. When that temperature is reached, the formulation (“the donor solution”) is added to the donor chamber. • h. 0.2 mL of donor solution is added. Both the donor chamber and sampling arm are covered by paraffin when not in use to prevent evaporation. • i. Sampling is done via Drummond pipet, and only through the sampling arm. 200-300 μL of receptor fluid is sampled from each cell at each time point. • j. The sample is added to an amber glass HPLC vial with 0.3 mL glass insert, and is weighed. […]

bovine calf cornea [7] = system: bovine calf cornea
Experimental: as §1, §2

[8] = API (Lot# 011510), RS analyzed Mar. 22, 2016
[9] = API (drug substance), lot AC-LACE-05-39 stored at 5 °C
[10] = Table 16-3, API (drug substance)
[11] = Table 17-1, API (drug substance)
[12] = Table 17-2, API (drug substance)
[13] = Table 17-3, API (drug substance)
[14] = Table 18-1, API (drug substance)
[15] = Table 18-2, API (drug substance)

Compound: C[N+](C)(C)CCOC(=O)CCCC[C@@H]1CCSS1.[I-] [API (Lot# 011510)]
API Related Substances, Oxid. LACE RRT 0.48 [1, 8]: 0.08%
API Related Substances, Oxid. LACE RRT 0.52 [1, 8]: 0.04%
API Related Substances, RRT 1.74 [1, 8]: 0.24%
API Related Substances, RRT 2.00 [1, 8]: 0.20%
API Related Substances, Total Imp. [1, 8]: 0.56%
Appearance [2]: Complies

Compound: C[N+](C)(C)CCOC(=O)CCCC[C@@H]1CCSS1.[Cl-] [API]
Related Substances RRT 1.00 API ([1]; API (drug substance)): 99.13 Area %
Related Substances RRT 1.65 ([1]; API (drug substance)): 0.34 Area %
Related Substances RRT 4.05 Lipoic Acid ([1]; API (drug substance)): 0.13 Area %
Related Substances, RRT 0.49 ([1]; API (drug substance)): 0.19 Area %
Related Substances, RRT 0.61 Oxidized Lace ([1]; API (drug substance)): 0.04 Area %
Related Substances, RRT 0.68 Oxidized Lace ([1]; API (drug substance)): 0.04 Area %
Related Substances, RRT 1.36 ([1]; API (drug substance)): 0.34 Area %
Related Substances, RRT 1.52 ([1]; API (drug substance)): 0.34 Area %
Related Substances, RRT 1.73 ([1]; API (drug substance)): 0.17 Area %
Related Substances, RRT 1.86 ([1]; API (drug substance)): 0.17 Area %
Related Substances, RRT 4.11 Lipoic Acid ([1]; API (drug substance)): 0.13 Area %
Total Impurities ([1]; API (drug substance)): 0.87 Area %
Related Substances RRT 0.51 ([1]; API (drug substance), lot AC-LACE-05-21 stored at 5 °C): 0.19 Area %
Related Substances RRT 0.51 [1, 9]: 0.10 Area %
Related Substances RRT 2.28 [1, 9]: 0.17 Area %
Related Substances RRT 2.28 ([1]; API (drug substance), lot AC-LACE-05-39 stored at 25 °C): 0.13 Area %
Related Substances RRT 0.51 [1, 10]: 0.10 Area %
Related Substances RRT 0.68 [1, 10]: 0.04 Area %
Related Substances RRT 1.00 [1, 10]: 99.13 Area %
Related Substances RRT 1.65 [1, 10]: 0.34 Area %
Related Substances RRT 2.28 [1, 10]: 0.17 Area %
Related Substances RRT 4.05 [1, 10]: 0.13 Area %
Total Impurities [1, 10]: 0.87 Area %
Related Substances RRT 0.50 [1, 11]: 0.20 Area %
Related Substances RRT 0.59 [1, 11]: 0.04 Area %
Related Substances RRT 1.27 [1, 11]: 0.34 Area %
Related Substances RRT 1.42 [1, 11]: 0.17 Area %
Related Substances RRT 3.00 [1, 11]: 99.13 Area %
Related Substances RRT 3.07 [1, 11]: 0.13 Area %
Total Impurities [1, 11]: 0.87 Area %
Related Substances RRT 0.50 [1, 12]: 0.20 Area %
Related Substances RRT 0.59 [1, 12]: 0.04 Area %
Related Substances RRT 1.00 [1, 12]: 99.13 Area %
Related Substances RRT 1.27 [1, 12]: 0.34 Area %
Related Substances RRT 1.42 [1, 12]: 0.17 Area %
Related Substances, Lipoic Acid (RRT not given) [1, 12]: 0.13 Area %
Total Impurities [1, 12]: 0.87 Area %
Related Substances RRT 0.50 [1, 13]: 0.20 Area %
Related Substances RRT 0.59 [1, 13]: 0.04 Area %
Related Substances RRT 1.00 [1, 13]: 99.13 Area %
Related Substances RRT 1.27 [1, 13]: 0.34 Area %
Related Substances RRT 1.42 [1, 13]: 0.17 Area %
Related Substances RRT 3.07 Lipoic Acid [1, 13]: 0.13 Area %
Total Impurities [1, 13]: 0.87 Area %
Related Substances RRT 0.51 [1, 14]: 0.10 Area %
Related Substances RRT 0.68 [1, 14]: 0.04 Area %
Related Substances RRT 1.00 API [1, 14]: 99.13 Area %
Related Substances RRT 1.65 [1, 14]: 0.34 Area %
Related Substances RRT 2.28 [1, 14]: 0.17 Area %
Related Substances RRT 4.05 Lipoic Acid [1, 14]: 0.13 Area %
Total Impurities [1, 14]: 0.87 Area %
Related Substances RRT 0.51 [1, 15]: 0.10 Area %
Related Substances RRT 0.68 [1, 15]: 0.04 Area %
Related Substances RRT 1.00 API [1, 15]: 99.13 Area %
Related Substances RRT 1.65 [1, 15]: 0.34 Area %
Related Substances RRT 2.28 [1, 15]: 0.17 Area %
Related Substances RRT 4.05 Lipoic Acid [1, 15]: 0.13 Area %
Total Impurities [1, 15]: 0.87 Area %

Compound: C[N+](C)(C)CCOC(=O)CCCC[C@@H]1CCSS1 [LACE, lipoic acid choline ester]
additional osmolality for every 1% LACE, average ([3]; earlier formulations): 48 mOsm/kg
additional osmolality for every 1% LACE ([3]; earlier formulations, range): 44-55 mOsm/kg
effect of LACE on osmolality for every 1% ([3]; from Table 6 solutions): 57-60 mOsm/kg
ocular irritation (ocular surface; compounded at room temperature): comfortable and non-irritating

Compound: C[N+](C)(C)CCOC(=O)CCCC[C@@H]1CCSS1 [LACE Chloride, Lipoic Acid Choline Ester Chloride]
Hygroscopicity [4]: Highly hygroscopic
Solution pH [4]: 7-7.5
logP [4]: < 2
solubility ([4]; in water): > 50 mg/mL
solubility ([4]; organic solvent or mixture, in acetonitrile): > 4 mg/mL
equilibrium concentration of aggregates (% of the API peak) ([5]; after dispersion with agitated stirring): < 1%
percent micellar species (% of the main LACE API Peak) ([5]; formulated under argon and refrigerated conditions): 8-10%
ocular irritation (ocular surface; solution formulated at refrigerated temperatures): extremely irritating
permeated species (bovine calf cornea [6]): somewhat more intact LACE permeated

equilibrium concentration of aggregates (% of the API peak) [5]: 39-41%
aggregated species (% of the API) ([5]; at the end of 8 hours of mixing): ≤ 39%
% Associative Species at T0 ([5]; direct dissolution: Buffer with 0.6% NaCl, 1.5% PG): 40.9%
% Associative Species at T0 ([5]; direct dissolution: Buffer with 1.8% NaCl): 34.7%
% Associative Species at T0 ([5]; direct dissolution: Ethanol (78% final), then Buffer (22%)): 0.0%
% Associative Species at T0 ([5]; direct dissolution: Propylene Glycol (10%), then Buffer (90%)): 11.7%
overall percent of drug permeated (bovine calf cornea [7]): 3-7%
permeated species (bovine calf cornea [7]): almost entirely lipoic acid
Compound: C[N+](C)(C)CCOC(=O)CCCCC1CCSS1.[I-] (stereo not shown) [LACE Iodide]
